Values quoted from earlier work, collected in patent EP4407007A1, “ECO-FRIENDLY INK FORMULATION, PARTICULARLY FOR BALLPOINT PENS AND ASSOCIATED BALLPOINT PEN CARTRIDGE” (Reinol S.r.l., priority 2023, dated 2024).

Legend:
[1] = hazard category
[2] = system: Fish; conditions: hazard category
[3] = hazard category; remark: listed apart in the source

CC1(C)OCC(CO)O1 (racemic) [2,2-dimethyl-1,3-dioxolane-4-yl-methanol]
Skin irritation [1]: Unclassified
Aquatic toxicity Fish [2]: Unclassified
Acute toxicity Oral inhalation [3]: Unclassified

OCc1ccccc1 [benzyl alcohol]
Skin irritation [1]: Category 2
Aquatic toxicity Fish [2]: Category 2
Acute toxicity Oral inhalation [3]: Category 4
